Test results: patent US11820782B2, “Salt forms of amino pyrazine purine based selective kinase inhibitor” (FTG BIO LLC, priority 2018, dated 2023)

Key:
[1] = Equilibrium solubility in pH 6.8 0.01M phosphate buffer by HPLC; format: physicochemical; conditions: pH6.8 0.01M potassium dihydrogen phosphate buffer
[2] = 1 week stability of shortlisted salts at 40° C./75% RH, open; format: physicochemical; conditions: after 7 days at 40° C./75% RH, open

In the case of Fumarate, the “Solubility in pH 6.8 buffer” value [1] is reported as 2.62 mg/mL, the “% purity” value ([2]; HPLC) is reported as 95.81% and the XRD ([2]; physical form vs initial) is reported as “Same as initial form”.
